This is an account of results in patent US5734077A, “Substituted 2,2-dimethyl-omega-phenoxyalkanoic acids and esters” (Adir ET Compagnie, priority 1995, dated 1998).

In assay [1] the test system is human low density lipoproteins (LDLs). Nature of the assay: protective activity against oxidation of human LDLs induced by copper sulphate (TBARS determination). The assay is classed as biochemical. Conditions: copper sulphate 5 μM, 3 hours at 37° C., read-out: IC50, protection against the oxidation of LDLs. The method, then: The dose-effect relationship of those compounds was compared with that of probucol and a soluble analogue of vitamin E, trolox.
The anti-oxidant activity of the compounds was measured according to the method of Wallin et al. (Analytical Biochemistry, 1993, 208, 10-15).
Human LDLs are incubated for 3 hours at 37° C. in the presence of an oxidising agent, copper sulphate at a concentration of 5 μM, and of the compound to be tested at concentrations ranging from 10^-8 M to 2.5×10^-6 M. A non-oxidised control (LDLs only) and an oxidised control (LDLs plus copper sulphate) are also included in each of the series of tests.
The products of the LDL oxidation reaction are quantified by the colorimetric determination of "thiobarbituric acid reactive substances" (TBARS).
The protective activity of the tested compounds is expressed by the IC50 value, which corresponds to the concentration of product required to inhibit by 50% the oxidation of LDLs observed in the absence of product. The IC50 value was calculated from the dose-response curve.

For assay [2], the system named is plasma lipids (triglycerides, total cholesterol). Nature of the assay: hypolipaemic activity in vivo in a diet-induced model of combined hyperlipaemia in the hamster. The arrangement: species or system Golden Syrian hamster. Conditions: 200 mg/kg/day per os, 1 week; for change in vivo at 200 mg/kg: Mesocricetus auratus, po, 168 h, hamsters on lipid-rich diet, versus control group, bezafibrate: mean ± sem of five experiments. As for the experimental part:
The hypolipaemic activity of certain representative compounds of the invention was evaluated in vivo in a diet-induced model of combined hyperlipaemia in the hamster.
Golden Syrian hamsters are given a diet rich in lipids (standard diet+0.5% cholesterol+10% cocoa oil) for 3 weeks before the beginning of treatment. That diet induces hypercholesterolaemia and hypertriglyceridaemia.
The products are prepared in tragacanth gum and are administered per os by forced gastric feeding for 1 week at a dose of 200 mg/kg/day. Each product is tested on a group of 6 animals. A placebo group (control) and a group of animals treated with a reference product (bezafibrate at a dose of 200 mg/kg/day) are included in each experiment.
At the end of the treatment, the animals are anaesthetised with ether. Blood is removed by abdominal puncture and the triglycerides and total cholesterol in the serums are determined. Five independent experiments were carried out in accordance with that protocol in order to evaluate the hypolipaemic effect of thirteen compounds of this invention.
The results are shown in Table B. The effect of the treatment is expressed as a percentage variation by comparison with the control group, calculated from the means of the absolute values of triglycerides and of total cholesterol. A negative value thus reflects a hypolipaemic effect of the treatment indicated. The values shown for bezafibrate represent the mean values (±sem) of five experiments.

Where [3] appears, read: read-out: Total cholesterol (% variation/control).
Where [4] appears, read: read-out: Triglycerides (% variation/control).
Where [5] appears, read: hamster, bezafibrate 200 mg/kg/day.

The structures appear in SMILES notation. Read-outs that look alike come from different tables or passages of the source.

For orientation: IC50 means the concentration that inhibits the measured activity by half.

Regarding `Cc1c(C)c2c(c(C)c1O)CCC(C)(C=CCCOc1ccc(OCCCC(C)(C)C(=O)O)cc1)O2` (racemic) [Example 17, R,S-2,2-dimethyl-5-{4-[4-(6-hydroxy-2,5,7,8-tetramethyl-3,4-dihydrobenzopyran-2-yl)but-3-enyloxy]phenoxy}pentanoic acid], the IC50 in assay [1] was 960 nM.
As for `Cc1c(C)c2c(c(C)c1O)CCC(C)(CCCCOc1ccc(OCCCC(C)(C)C(=O)O)cc1)O2` (racemic) [Example 18, R,S -2,2-dimethyl-5-{4-[4-(6-hydroxy-2,5,7,8-tetramethyl-3,4-dihydrobenzopyran-2-yl)butyloxy]phenoxy}pentanoic acid], the IC50 in assay [1] came out at 720 nM. Further, the values for the change in vivo at 200 mg/kg in assay [2] (setting [3]) and in assay [2] (setting [4]) were -61% and -79%, respectively.
On to `Cc1c(C)c2c(c(C)c1O)CCC(C)(CCCc1cccc(OCCCC(C)(C)C(=O)O)c1)O2` (racemic) [Example 19, R,S-2,2-dimethyl-5-{3-[3-(6-hydroxy-2,5,7,8-tetramethyl-3,4-dihydrobenzopyran-2-yl)-propyl]phenoxy}pentanoic acid], for which the IC50 in assay [1] came to 680 nM.
With `CC(C)(Oc1ccc(CCNC(=O)c2ccc(Cl)cc2)cc1)C(=O)O` [Bezafibrate, bezafibrate, reference compound], the change in vivo at 200 mg/kg in assay [2] (setting [3]) was -48 ± 4%; in assay [2] (setting [4]) it was -46 ± 19%.
As to `CC(C)(CCCOc1ccc(CCSc2cc(C(C)(C)C)c(O)c(C(C)(C)C)c2)cc1)C(=O)O` [Example 1, 2,2-Dimethyl-5-{4-[2-(3,5-di-tert-butyl-4-hydroxyphenylthio)ethyl]phenoxy}pentanoic acid], in assay [1], the IC50 is 420 nM.
With `CC(C)(CCCOc1ccc(CCSc2cc(C(C)(C)C)c(O)c(C(C)(C)C)c2)cc1)C(=O)O` [Example 2, 2,2-dimethyl-5-{4-[2-(3,5-di-tert-butyl-4-hydroxyphenylthio)ethyl]phenoxy}pentanoic acid], the IC50 in assay [1] was determined as 210 nM. In assay [2] (setting [5]), the “hypocholesterolaemic effect compared with bezafibrate (in words)” value is listed as “hypocholesterolaemic effect at least as great as bezafibrate” and the “triglyceride-lowering effectiveness compared with bezafibrate (in words)” value is reported as “statistically at least as effective as bezafibrate”. In addition, the change in vivo at 200 mg/kg in assay [2] (setting [3]) is -52%. Moreover, the change in vivo at 200 mg/kg in assay [2] (setting [4]) is -82%.
In the case of `CC(C)(CCCOc1ccc(OCCCSc2cc(C(C)(C)C)c(O)c(C(C)(C)C)c2)cc1)C(=O)O` [Example 5, 2,2-dimethyl-5-{4-[3-(3,5-di-tert-butyl-4-hydroxyphenylthio)propyloxy]phenoxy}pentanoic acid], in assay [1], the IC50 came to 550 nM.
Still for that read-out and setting: as for `Cc1cc(OCCc2ccc(OCCCC(C)(C)C(=O)O)cc2)c(C)c(C)c1O` [Example 9, 2,2-dimethyl-5-{4-[2-(4-hydroxy-2,3,5-trimethylphenoxy)ethyl]phenoxy}pentanoic acid], the figure is 200 nM; as for `CC(C)(CCCOc1ccc(CCCOc2cc(C(C)(C)C)c(O)c(C(C)(C)C)c2)cc1)C(=O)O` [Example 10, 2,2-dimethyl-5-{4-[3-(3,5-di-tert-butyl-4-hydroxyphenoxy)propyl]phenoxy}pentanoic acid], 240 nM; as for `Cc1cc(OCCc2cccc(OCCCC(C)(C)C(=O)O)c2)c(C)c(C)c1O` [Example 14, 2,2-dimethyl-5-{3-[2-(4-hydroxy-2,3,5-trimethylphenoxy)ethyl]phenoxy}pentanoic acid], 88 nM.
The same measure, in the same setting: as for `CC(C)(Sc1cc(C(C)(C)C)c(O)c(C(C)(C)C)c1)Sc1cc(C(C)(C)C)c(O)c(C(C)(C)C)c1` [Probucol, probucol, reference compound], the figure is 5800 nM; as for `Cc1c(C)c2c(c(C)c1O)CCC(C)(C(=O)O)O2` (stereo not shown) [Trolox, trolox, reference compound], 1600 nM.
